From patent US8541364B2, “Use of a octreotide as a therapeutic agent” (Mondobiotech Laboratories AG, priority 2007, dated 2013) come the findings set out here.

The test system of one data set is HIV-1IIIB. Kind of data set: HIV-1 antiviral assay, CPE reduction (MTS). The conditions noted are these: peptide 10 micrograms per ml; 6 days post-infection.
Data set [1] relates to HUVEC. Kind of data set: Endothelial tube formation assay. It is filed as cell-based, human. The conditions noted are these: 10 micrograms per ml, 20 hours. As to the method: The endothelial tube formation assay is based on the ability of endothelial cells to form three-dimensional capillary-like tubular structures when cultured on a gel of basement membrane extract. The endothelial tube formation assay represents a powerful model for studying inhibition and induction of angiogenesis. Pre-labeled HUVEC with Calcein AM were seeded in a 96-well culture plate coated with extracellular metrix (Chemicon international Cat. ECM625) and treated with test peptide—10 micrograms per ml—in full growth medium. Positive control was vehicle only. The endothelial cells were allowed to form tubes foe 20 hours and were then examined under an inverted fluorescent microscope. Duplicate wells for each treatment were photographed and quantitatevily analyzed for an average tubule length using image analysis software ImageProPlus. Raw data were expressed as average tubule lenghs in pixels±standard deviation. Statistic p values were computed using the Student's t-test.

A further data set has as its system Streptococcus pneumoniae. Put plainly: Streptococcus pneumoniae assay. Type of data set: cell-based. The conditions noted are these: Streptococcus pneumoniae growth; peptide 10 micrograms per ml. As to the method:
(§1) The antibacterial assay was conducted using clear, U-bottom 96-well microtiter plates. Cation-adjusted Mueller-Hinton Broth (MHB) was used for testing Streptococcus pneumoniae. The peptide of the invention (0.1 ml of each—10 micrograms per ml—) was dispensed into wells in duplicate. Then the wells were inoculated with 5×10^5 CFU/mL Streptococcus pneumoniae in 0.1 ml volume. For control purposes, each plate included 4 wells containing media without bacterial inoculum and 4 wells containing medium with inoculum but without peptide. The plates were incubated for 12 h at 37° C., and read visually 18-24 hours post-incubation. Growth control of Streptococcus pneumoniae was examined first to determine adequacy of media preparations and growth conditions. Acceptable growth is defined as ≧2 mm wide button of cells at the bottom of each sample well, or obvious turbidity in the culture supernatant. Test wells were examined and scored as positive/negative for activity. A positive score for activity is based on complete inhibition of macroscopic growth of the test Streptococcus pneumoniae.

In data set [2] the test system is PHA-stimulated PBMC (T cell proliferation). Kind of data set: T cell proliferation assay. Type of data set: cell-based, human. The following applies: 3H-thymidine incorporation; 10 micrograms per ml. For orientation: Dividing cells build labelled thymidine or BrdU into new DNA.
Method: Human Peripheral Blood Mononuclear Cells (PBMC) were obtained from normal human donors. The T cell proliferation was induced by stimulation of the cells with the T cell mitogen phytohemagglutinin (PHA), either in the absence (positive proliferation control), or in the presence of test peptide—10 micrograms per ml—to examine their effects on the T cell proliferating response. 10^5/well PBMC were plated in 96-well microtiter plates and assayed in duplicate with the peptide. Cell cultures were incubated at 37° C. for 3 days in a 5% CO2 incubator and were thereafter pulsed with 1 microCi/well ^3H-thymidine for additional 12 hours of culture. At the end of incubation time, the plates were harvested and the cells counted by liquid scintillation for the incorporation of ^3H-thymidine as a measure of T cell proliferation.
Data set [3] deals with Ovalbumin-restimulated spleen cells. Kind of data set: Th1/Th2 cytokine profiling assay. Type of data set: cell-based, Balb/c mice. The conditions noted are these: 10 micrograms per ml; 72 hours. An excerpt: The Balb/c mice (originated in 1923, it is a popular strain and is used in many different research disciplines. Also classified as an inbred from the production of 20 or more successive brother-sister matings, the Balb/c mouse is albino and small in size) were immunized on Days 1, 15, and 29 with Ovalbumin (Ovalbumin is the main protein found in egg white, commonly used to stimulate an immunological reaction in test animals) in PBS (5 micrograms/injection). On day 50, spleens of the mice were harvested (3 weeks after last boost with Ovalbumin). Cells were cultured (2×10^5/well in triplicate) and incubated with culture medium or test peptide—10 micrograms per ml—for 30 min. Thereafter, additional Ovalbumin was added to the cells at 10 micrograms/ml for in vitro restimulation of the cells. 72 hours later, cell supernatants were harvested and assayed using the Becton Dickinson Mouse Th1/Th2 Cytokine CBA Kit. This kit can be used to measure Interleukin-2 (IL-2), Interleukin-4 (IL-4), Interleukin-5 (IL-5), Interferon-γ (IFN-γ), and Tumor Necrosis Factor-α (TNF-α) protein levels in a single sample. The kit performance has been optimized for analysis of physiologically relevant concentrations (pg/ml levels) of specific cytokine proteins in tissue culture supernatants and serum samples.

The test system of data set [4] is A549 cells. Kind of data set: Apoptosis prevention assay (Annexin-5, C2 ceramide). Type of data set: cell-based, human. The following applies: A549 cells pretreated 30 min; 10 micrograms per ml. An excerpt:
Human A549 cells (carcinomic human alveolar basal epithelial cells) were utilized in the experiments employing the Annexin-5 apoptosis assay. Annexin-5 is a member of a highly conserved protein family that binds acidic phospholipids in a calcium-dependent manner. […] Phosphatidylserine is translocated from the inner side of the plasma membrane to the outer layer when cells undergo death by apoptosis or cell necrosis and serves as a signal by which cell destined for death are recognized by phagocytes. A549 cells were pretreated for 30 min with test peptide—10 micrograms per ml—followed by the exposure to C2 ceramide. Ceramide mediates cell apoptosis through the activation of the mitogen activating protein kinase (MAPK) and the stress activated kinase (JNK/SAPK). C2 ceramide is a synthetic, membrane soluble analog of ceramide.

Data set [5] has as its system HUVEC. Put plainly: Endothelial cell migration assay. Type of data set: cell-based, human. The following applies: 10 micrograms per ml, 22 hours. The procedure:
Endothelial cell migration is a prerequisite for the process of neo-vascularization or angiogenesis which is crucial for on-site recruitment of blood vessel formation. Primary Human endothelial cells (HUVEC) were seeded in insert chambers with 3 micrometer pore size of multi-transwell plate for 6 hours at 37° C. in Endothelial Cell Basal Medium (EBM) supplemented with 0.1% bovine serum albumin. Thereafter, designated concentration of test peptide—10 micrograms per ml—was added in duplicate wells. The endothelia were allowed to migrate for 22 hours at 37° C., then, migrated cells were fixed and stained with Hoechst 33342 dye. Images of 3 fields per insert were taken and the number of migrated cells per field were quantified using the ImageProPlus software. Data were analyzed for the average number of the migrated cells and standard deviation of six data points for each treatment condition. Active test peptide against HUVEC migration was determined based on 50% inhibition of migrated cells as compared with the control. Statistic p values were computed using the Student's t-test.

Data set [6] relates to A549 cells. Put plainly: Apoptosis induction assay (Annexin-5). Type of data set: cell-based, human. The following applies: 10 micrograms per ml, 24 hours. From the text:
Human A549 cells (carcinomic human alveolar basal epithelial cells) were utilized in the experiments employing the Annexin-5 apoptosis assay. Annexin-5 is a member of a highly conserved protein family that binds acidic phospholipids in a calcium-dependent manner. […] Phosphatidylserine is translocated from the inner side of the plasma membrane to the outer layer when cells undergo death by apoptosis or cell necrosis and serves as a signal by which cell destined for death are recognized by phagocytes. Test peptide—10 micrograms per ml—were exposed for 24 hours to the A549 cells before they were analyzed for signs of apoptosis.

For a further data set, the system named is MRC-5 cells. Kind of data set: HCMV assay cytotoxicity testing, CellTiter 96. Type of data set: cell-based, human. The following applies: 6 days incubation. As to the method: (§2) Cells were split twic a week 1:2.
For cytotxicity testing, MRC-5 cells were seeded at 2,500 cells/well in 96 well plates using growth medium. […] The following day, peptide was added and tested in duplicates. After a 6 days incubation period, cell viability was measured using CellTiter 96 Solution (Promega). Plates were incubated for additional 4 hours at 37° C.

In another data set the test system is HCMV strain AD169. Kind of data set: HCMV plaque reduction assay. Type of data set: cell-based. The conditions noted are these: HCMV in MRC-5 cells; peptide 10 micrograms per ml; 7-10 days.
Excerpt: as §2
Ganciclovir was used as positive control.
Background: In a plaque reduction assay, fewer plaques than in the control indicate reduced infectivity or spread.

Data set [7] relates to A549 cells. Kind of data set: Propidium iodide cell cycle assay. Type of data set: cell-based, human. The conditions noted are these: 10 micrograms per ml, 24 hours. As to the method: Human A549 cells (carcinomic human alveolar basal epithelial cells) were utilized in the experiments employing the Propidium iodide cell cycle assay. The eukaryotic cell cycle is a series of events that take place in a cell leading to its replication.
Propidium iodide is an intercalating agent and a fluorescent molecule that can be used to stain DNA. Cells were incubated for 24 hours with test peptide—10 micrograms per ml—or left untreated. After that cells were trypsinized, suspended in medium+10% FCS, centrifuged (1000 rpm, 5 min), and the cell pellet resuspended in PBS (1 ml). The cells were pipetted into 2.5 ml absolute EtOH (final concentration approx. 70%) and incubated on ice for 15 min. Thereafter, cells were pelleted at 1500 rpm for 5 min and resuspended in Propidium iodide solution in PBS. After incubation for 40 min at 37° C., cells were analyzed in the FACS.

Another data set has as its system MRSA. Put plainly: Methicillin resistant Staphylococcus aureus (MRSA) assay. It is filed as cell-based. The following applies: MRSA growth; peptide 10 micrograms per ml. As to the method:
as §1, with “MRSA.” for “Streptococcus pneumoniae.”, “MRSA” for “Streptococcus pneumoniae”, “2” for “≧2”

For a further data set, the system named is Pseudomonas aeruginosa. Put plainly: Pseudomonas aeruginosa assay. Type of data set: cell-based. The conditions noted are these: Pseudomonas aeruginosa growth; peptide 10 micrograms per ml. As to the method:
as §1, with “Pseudomonas aeruginosa.” for “Streptococcus pneumoniae.”, “Pseudomonas aeruginosa” for “Streptococcus pneumoniae”

For the next data set, the system named is HepG2-2.2.15 cells. Put plainly: HBV assay cytotoxicity, dye uptake cell viability. Type of data set: cell-based. The conditions noted are these: peptide 10 micrograms per ml.
The next data set has as its system CEM-SS cells. Kind of data set: HIV-1 assay cytotoxicity, MTS cell viability. The following applies: peptide 10 micrograms per ml.

Take `CC(C)(C)NC(=O)[C@@H]1CN(Cc2cccnc2)CCN1C[C@@H](O)C[C@@H](Cc1ccccc1)C(=O)N[C@H]1c2ccccc2C[C@H]1O` [Indinavir]: the “% CPE reduction in HIV-1 infected CEM-SS cells” value (“% CPE reduction” for short) in the data set with HIV-1IIIB turned out to be 100%.

With `C[C@@H](O)[C@@H]1NC(=O)[C@H](CCCCN)NC(=O)[C@@H](Cc2c[nH]c3ccccc23)NC(=O)[C@H](Cc2ccccc2)NC(=O)[C@@H](NC(=O)[C@H](N)Cc2ccccc2)CSSC[C@@H](C(=O)N[C@H](CO)[C@@H](C)O)NC1=O` [Octreotide, D-Phe-Cys-Phe-D-Trp-Lys-Thr-Cys-L-threoninol], in the data set with HUVEC [1], the “% inhibition of tube formation” value is listed as 8%. Besides, the “% inhibition” value was found to be 100.0% in the data set with Streptococcus pneumoniae, 0.0% in the data set on MRSA and 0.0% with Pseudomonas aeruginosa. Also, the “% of PHA induced control” value in data set [2] is 100.0%. The “IFNγ spleen cells; TH1 response (% of control)” value in data set [3] was 56.0 % of control. The “% prevention of ceramide induced apoptosis” value in the data set on A549 cells [4] was 0.0%. Also, in the data set on HUVEC [5], the “% inhibition of migration” value is −24%. Also, the “% of induction” value with A549 cells [6] is recorded as 2.6%. Moreover, the results for the “% Cell viability” value in the data set with MRC-5 cells, with HepG2-2.2.15 cells and in the data set with CEM-SS cells were 100%, 97.8% and 100%, respectively. For the same compound, in the data set on HCMV strain AD169, the “% plaque reduction” value is 0.0%. Also, in the data set on A549 cells [7], the “Cell cycle analysis G2/M” value is on record as 9.2. Besides, the “% CPE reduction” value in the data set with HIV-1IIIB worked out at 0.0%.

Regarding `Cc1cn([C@H]2C[C@H](N=[N+]=[N-])[C@@H](CO)O2)c(=O)[nH]c1=O` [AZT, reference compound], the “% CPE reduction” value with HIV-1IIIB is recorded as 99%. Further, the “% Cell viability” value in the data set with CEM-SS cells amounted to 97%.

For orientation: % inhibition means the share of the control response that was lost under treatment. Lower therefore signals a response near the control.
